These results are taken from patent US6825236B2, “Colchicine derivatives” (California Pacific Medical Center, priority 2003, dated 2004).

One data set has as its system HCT116. The experiment in a line: Cell colony formation assay. The note with it: 72 hours with drug, colonies counted after 7 days. Format: cell-based. Here is the method:
This example provides directions for growing cells and testing compounds of the invention for their effect on the growth of the cells. All cells were purchased from DCTDC Tumor Repository, NCI, NIH.
Cell Colony Formation Assay
Four hundred cells (HCT 116, PC-3) or five hundred cells (VM46) were plated in 60 mm Petri dishes containing 2.7 ml of medium (modified McCoy's 5a medium) containing 10% fetal bovine serum and 100 units/ml penicillin and […] streptomycin. The cells were incubated in a CO2 incubator at 37° C. for 5 hours for attachment to the bottom of Petri dishes. Drugs were made fresh in medium at ten times the final concentration, and then 0.3 ml of this stock solution was added to the 2.7 ml of medium in the dish. The cells were then incubated with drugs for 72 hours at 37° C. At the end of the incubation the drug-containing media were decanted, the dishes were rinsed with 4 ml of Hank's Balance Salt Solution (HBSS), 5 ml of fresh medium was added, and the dishes were returned to the incubator for colony formation. The cell colonies were counted using colony counter after incubation for 7 days for HCT116 cells and PC-3 cells and 8 days for VM46 cells, respectively.
Values of ID50 (the drug concentration producing 50% inhibition of colony formation) may be determined for each tested compound. The directions described in this example may be used in other cells, such as DU-145.

A further data set deals with C3H/HeJ mice. The experiment in a line: In vivo toxicity (MTD / nontoxicity dose), intraperitoneal injection. The conditions noted are these: highest dose causing no severe irreversible toxicity. Here is the method: This example provides directions for performing in vivo toxicity tests of the compounds of the invention on C3H/HeJ mice.
Acute toxicities of the compounds of this invention are evaluated on C3H/HeJ mice (body weight 18-22 g). The MTD40 (maximum tolerated dose at day 40) values are determined by the standard procedure described by Gad and Chengelis (see, for example, “Acute Toxicology Testing,” 2nd Ed., Shayne O. Gad and Christopher P. Chengelis, pp. 186-195 (Academic Press).) In the consecutive type studies, 2 mice are dosed at low and moderate doses of 40 and 100 mg/kg. If no severe and irreversible toxicity (euthanasia is required) occurs at these doses, a new pair of animals is initiated at 180 mg/kg, which is 1.8 times higher than 100 mg/kg. Sequential dosages (about 3 doses on 3 pairs of animals, i.e. 2 mice for each drug dose) are increased by a factor of 1.8 until severe and irreversible toxicity (euthanasia is required) occurred. Then another pair of animals is initiated at the highest nonlethal dosage, and successive dosages were increased by a factor of 1.15. The result of this exercise is two dosages, one apparently nonlethal and the other lethal if severe and irreversible toxicity occurs and euthanasia is required, separated by a factor of 1.15. Six mice are dosed at each dosage. If no severe and irreversible toxicity occurs at the lower dosage and at least one with severe and irreversible toxicity occurs at the higher dose, then the lower dose is considered to be the MTD. The compounds of this invention are administered to C3H/HeJ mice by intraperitoneal injection (IP). Drug toxicity is evaluated on mice checked daily for 45 days. The toxicity parameters reported will be the MTD40.

Data set [1] relates to MTG-B mouse mammary adenocarcinoma. The experiment in a line: In vivo efficacy in mice bearing MTG-B tumors. Set-up: species or system C3H/HeJ mice. The note with it: for Surviving days after treatment of MTG-B mouse mammary adenocarcinoma in C3H/Hcj mice: i.p., days from day 0, survival time of control mice generally 6 days; for T/C %: surviving days of treated mice / surviving days of control mice x 100%. The procedure: This example provides directions for performing in vivo efficacy tests of the compounds of the invention on C3H/HeJ mice bearing MTG-B tumors.
Studies on the compounds of this invention are performed on C3H/HeJ mice bearing MTG-B tumors. The tumors grow exponentially following implantation into the flanks of the mice and reached a diameter of 8 mm (268.08 mm^3) by day 7 to 10. Treatment is initiated at that time, with the first day of treatment designated as day 0 for calculation and plots. The mice are injected i.p. with three drug dose levels (⅓, ½, 1 5 MTD) using both a single injection and the schedule of Q2D 5 3 (every 2 days for a total of 3 treatments at ⅓ MTD). Control groups of mice bearing 8 mm diameter tumors are treated with vehicle alone. After drug treatment, the mice are observed twice a day. When a tumor reaches 1.5 g, the mouse bearing the tumor wis euthanized. Surviving days measured from day 0 for mice treated with anticancer drugs (T) and surviving days measured from day 0 for control mice (C) are recorded. Tumor growth inhibition values (T/C %) are calculated using the formula T/C %=(surviving days of mice treated with an anticancer drug T/surviving days of control mice C) 5 100%.
Tumor sizes may be measured by caliper every day. Daily measurement (mm) of solid tumor (length L and width W) in two dimensions is used to calculate the tumor weight [tumor weight=(length 5 width^2)/2] based on the interchangeable value of 1 mm^3=1 mg. Tumor growth delay (T−C value) is determined by calculation of the median time (in days) required for the treatment group and control group tumors to reach 1,000 mg. Tumor doubling time (Td) is measured, and tumor cell kill is calculated by the formula of log cell kill=(T−C value)/(3.32 5 Td). Regression effects after treatment may be observed and recorded (a complete regression: a regression below limit of palpation; a partial regression: a regression of more than 50% reduction in tumor mass).
Generally, the survival time of the control mice is six (6) days. A ratio of the extra days of survival of mice treated with the compounds of the invention (compared to control) to the extra days of survival of mice treated with taxol (compared to control), can be calculated. For example, if the mice survived 18 days as compared to 9 days for taxol-treated mice, the CD/Taxol ratio would be 18−6/9−6=12/3=4 or 400%.
The following Table II provides a summary of the in vivo toxicity and iv vivo efficacy tests described in Examples 41 and 42 for the compounds tested.

With `COc1cc2c(c(OC)c1OC)-c1ccc(SC)c(=O)cc1C(NC(=O)c1cc(=O)c3ccccc3o1)CC2` (stereo not shown) [Compound 000914, N-Deacetyl-N-(chromone-2-carbonyl)thiocolchicine], the “Survival (%) of HCT116” value was 3.54% in the data set on HCT116 (10 nM) and 0% in the data set with HCT116 (100 nM). Besides, in the data set with C3H/HeJ mice, the “In Vivo Toxicity Nontoxicity Dose (ip. mg/kg) in C3H/Hej mice” value is on record as 150 (120) mg/kg.

Turning to `COc1cc2c(c(OC)c1OC)-c1ccc(SC)c(=O)cc1C(NC(=O)COc1ccc(C=O)cc1)CC2` (stereo not shown) [Compound 000829, N-Deacetyl-N-(4-formylphenoxyacetyl)thiocolchicine], the “Survival (%) of HCT116” value with HCT116 (1 nM) came out at 100%; with HCT116 (10 nM), 0%; with HCT116 (100 nM) it was 0%. For the same compound, the “In Vivo Toxicity Nontoxicity Dose (ip. mg/kg) in C3H/Hej mice” value in the data set with C3H/HeJ mice is 150 (120) mg/kg. In addition, in data set [1], the “Surviving days after treatment of MTG-B mouse mammary adenocarcinoma in C3H/Hcj mice” value (from here on “Surviving days after treatment … in C3H/Hcj mice”) is on record as 13 days. Also, in data set [1], the T/C % is reported as 217%.

Turning to `COc1cc2c(c(OC)c1OC)-c1ccc(OC)c(=O)cc1C(NC(C)=O)CC2` (stereo not shown) [Colchicine], the “Survival (%) of HCT116” value in the data set on HCT116 (1 nM) amounted to 100%; in the data set on HCT116 (10 nM), 76.1%; in the data set with HCT116 (100 nM), 0%. In addition, in the data set with C3H/HeJ mice, the “In Vivo Toxicity Nontoxicity Dose (ip. mg/kg) in C3H/Hej mice” value is reported as 1.6 (0.5) mg/kg. Also, the “Surviving days after treatment … in C3H/Hcj mice” value in data set [1] is recorded as 9 days. In data set [1], this compound yielded a T/C % of 150%.

Take `COc1cc2c(c(OC)c1OC)-c1ccc(SC)c(=O)cc1C(NC(=O)COc1ccc(I)cc1)CC2` (stereo not shown) [Compound 000816, N-Deacetyl-N-(4-iodophenoxyacetyl)thiocolchicine]: the results for the “Survival (%) of HCT116” value in the data set with HCT116 (10 nM) and in the data set on HCT116 (100 nM) were 100% and 0%, respectively. For the same compound, the “In Vivo Toxicity Nontoxicity Dose (ip. mg/kg) in C3H/Hej mice” value in the data set on C3H/HeJ mice is on record as 100 mg/kg.

As to `COc1cc2c(c(OC)c1OC)-c1ccc(SC)c(=O)cc1C(NC(=O)c1cccc(NC(=O)CCl)c1)CC2` (stereo not shown) [Compound 000911, N-Deacetyl-N-(3-chloroacetaminobenzoyl)thiocolchicine], the “Survival (%) of HCT116” value is 100% in the data set on HCT116 (1 nM), 0% with HCT116 (10 nM) and 0% with HCT116 (100 nM). Moreover, the “In Vivo Toxicity Nontoxicity Dose (ip. mg/kg) in C3H/Hej mice” value with C3H/HeJ mice was 30 (30) mg/kg. The “Surviving days after treatment … in C3H/Hcj mice” value in data set [1] turned out to be 11 days. In addition, in data set [1], the T/C % is 183%.

For the compound `COc1cc2c(c(OC)c1OC)-c1ccc(SC)c(=O)cc1C(NC(=O)COc1ccc(Cl)cc1)CC2` (stereo not shown) [Compound 000814, N-Deacetyl-N-(4-chlorophenoxyacetyl)thiocolchicine], the results for the “Survival (%) of HCT116” value in the data set on HCT116 (10 nM) and with HCT116 (100 nM) were 87.7% and 0%, respectively. For the same compound, the “In Vivo Toxicity Nontoxicity Dose (ip. mg/kg) in C3H/Hej mice” value in the data set on C3H/HeJ mice is 100 mg/kg.

As to `COc1cc2c(c(OC)c1OC)-c1ccc(SC)c(=O)cc1C(NC(=O)c1ccc([N+](=O)[O-])o1)CC2` (stereo not shown) [Compound 000906, N-Deacetyl-N-(5-nitro-2-furnancarbonyl)thiocolchicine], the “Survival (%) of HCT116” value in the data set with HCT116 (1 nM) is 98.67%; in the data set on HCT116 (10 nM), 0%; in the data set with HCT116 (100 nM) it was 0%. Further, the “In Vivo Toxicity Nontoxicity Dose (ip. mg/kg) in C3H/Hej mice” value with C3H/HeJ mice is recorded as 50 mg/kg.

On to `COc1cc2c(c(OC)c1OC)-c1ccc(SC)c(=O)cc1C(NC(=O)COc1ccccc1[N+](=O)[O-])CC2` (stereo not shown) [Compound 000830, N-Deacetyl-N-(2-nitrophenoxyacetyl)thiocolchicine], for which the “Survival (%) of HCT116” value in the data set with HCT116 (10 nM) is on record as 9.01%. In the data set with HCT116 (100 nM), the “Survival (%) of HCT116” value is 0%. Also, the “In Vivo Toxicity Nontoxicity Dose (ip. mg/kg) in C3H/Hej mice” value in the data set on C3H/HeJ mice is reported as 150 (120) mg/kg. Also, in data set [1], the “Surviving days after treatment … in C3H/Hcj mice” value is 8 days and the T/C % was found to be 133%.

Turning to `COc1cc2c(c(OC)c1OC)-c1ccc(SC)c(=O)cc1C(NC(=O)COc1ccc(Br)cc1)CC2` (stereo not shown) [Compound 000815, N-Deacetyl-N-(4-bromophenoxyacetyl)thiocoichicine], the “Survival (%) of HCT116” value with HCT116 (10 nM) came to 93.8%. Moreover, in the data set with HCT116 (100 nM), the “Survival (%) of HCT116” value is 0%. Besides, the “In Vivo Toxicity Nontoxicity Dose (ip. mg/kg) in C3H/Hej mice” value in the data set with C3H/HeJ mice is listed as 100 (100) mg/kg. Besides, in data set [1], the “Surviving days after treatment … in C3H/Hcj mice” value is listed as 9 days and the T/C % was found to be 150%.

Turning to `COc1ccc(OCC(=O)N[C@H]2CCc3cc(OC)c(OC)c(OC)c3-c3ccc(SC)c(=O)cc32)cc1` [Compound 000825, N-Deacetyl-N-(4-methoxyphenoxyacetyl)thiocolchicine], the “Survival (%) of HCT116” value with HCT116 (1 nM) worked out at 90.25%; with HCT116 (10 nM), 0%; in the data set with HCT116 (100 nM) it was 0%. Besides, the “In Vivo Toxicity Nontoxicity Dose (ip. mg/kg) in C3H/Hej mice” value in the data set with C3H/HeJ mice was 50 (30) mg/kg. Further, the “Surviving days after treatment … in C3H/Hcj mice” value in data set [1] was determined as 18 days.

`COc1cc2c(c(OC)c1OC)-c1ccc(SC)c(=O)cc1C(NC(=O)COc1ccc(F)cc1)CC2` (stereo not shown) [Compound 000811, N-Deacetyl-N-(4-fluorophenoxyacetyl)thiocolchicine]: the “Survival (%) of HCT116” value in the data set with HCT116 (10 nM) is listed as 50.4%; with HCT116 (100 nM), 0%. The “In Vivo Toxicity Nontoxicity Dose (ip. mg/kg) in C3H/Hej mice” value with C3H/HeJ mice is recorded as 150 mg/kg.

For the compound “N-Deacetyl-N-(4-methoxyphenoxyacetyl)thiocolchicine [Compound 000818]”, the “Survival (%) of HCT116” value in the data set with HCT116 (10 nM) is 98.8%; with HCT116 (100 nM) it was 0%. For the same compound, the “Surviving days after treatment … in C3H/Hcj mice” value in data set [1] stood at 8 days.

As to `COc1cc2c(c(OC)c1OC)-c1ccc(SC)c(=O)cc1C(NC(=O)COc1cc(C)ccc1C)CC2` (stereo not shown) [Compound 000817, N-Deacetyl-N-(2,5-dimethylphenoxyacetyl)thiocolchicine], the “Survival (%) of HCT116” value worked out at 99.8% with HCT116 (10 nM) and 0% in the data set on HCT116 (100 nM). Further, in the data set on C3H/HeJ mice, the “In Vivo Toxicity Nontoxicity Dose (ip. mg/kg) in C3H/Hej mice” value worked out at 100 mg/kg.
